This note sets out measurements from patent publication US11028064B2, “Tricyclic heterocyclic derivatives and uses thereof” (AUCKLAND UNISERVICES LIMITED, priority 2016, dated 2021).

SMILES strings stand for the structures. pIC50: −log10 of the molar value. Some results are limits rather than exact numbers.

Broadly, the pIC50 is the IC50 on a negative log10 scale, so that one unit is a factor of ten.

For the experiment, the target named is CSF-1R (FMS) (Homo sapiens (Human), UniProt P07333). The experiment can be described thus: SelectScreen Z'-LYTE kinase assay, Assay 336 for CSF-1R (FMS). The experiment is classed as biochemical. The conditions noted are these: Z'-LYTE activity assay, 500 μM ATP (Km app); read-out: CSF-1R Enzyme IC50.
Sequence of CSF-1R (FMS) (P07333 20-972): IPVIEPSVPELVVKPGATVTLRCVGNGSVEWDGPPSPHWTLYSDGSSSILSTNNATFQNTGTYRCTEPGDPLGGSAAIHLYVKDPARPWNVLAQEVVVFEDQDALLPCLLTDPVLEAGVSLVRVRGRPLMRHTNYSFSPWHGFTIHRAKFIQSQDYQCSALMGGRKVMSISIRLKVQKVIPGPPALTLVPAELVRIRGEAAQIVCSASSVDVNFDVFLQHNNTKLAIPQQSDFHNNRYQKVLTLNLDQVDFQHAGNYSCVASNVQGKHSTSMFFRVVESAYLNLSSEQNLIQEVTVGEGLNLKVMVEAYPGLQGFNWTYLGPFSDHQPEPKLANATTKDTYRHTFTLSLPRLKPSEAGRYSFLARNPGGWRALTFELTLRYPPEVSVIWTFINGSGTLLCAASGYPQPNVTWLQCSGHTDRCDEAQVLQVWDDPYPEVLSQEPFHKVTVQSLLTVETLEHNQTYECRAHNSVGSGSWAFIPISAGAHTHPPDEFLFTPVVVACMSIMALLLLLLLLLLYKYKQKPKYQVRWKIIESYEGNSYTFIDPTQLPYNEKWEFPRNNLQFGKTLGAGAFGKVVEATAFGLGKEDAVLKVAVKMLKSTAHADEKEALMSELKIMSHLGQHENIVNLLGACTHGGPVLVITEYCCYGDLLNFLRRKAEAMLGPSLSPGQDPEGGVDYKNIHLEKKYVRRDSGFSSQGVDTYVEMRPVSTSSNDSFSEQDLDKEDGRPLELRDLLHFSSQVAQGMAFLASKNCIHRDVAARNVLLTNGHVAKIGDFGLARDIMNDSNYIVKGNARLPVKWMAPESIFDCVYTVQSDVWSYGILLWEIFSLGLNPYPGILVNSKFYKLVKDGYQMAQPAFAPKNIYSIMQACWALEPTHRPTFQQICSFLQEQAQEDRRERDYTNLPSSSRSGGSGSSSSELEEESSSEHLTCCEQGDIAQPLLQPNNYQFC
Turning to `Cc1cc(OCCCN(C)C)c2oc3cc(Oc4ccc(CCC(=O)NC5CCCC5)nc4)ccc3c(=O)c2c1` [Example 63, N-Cyclopentyl-3-(5-((5-(3-(dimethylamino)propoxy)-7-methyl-9-oxo-9H-xanthen-3-yl)oxy)pyridin-2-yl)propanamide], the pIC50 is > 7.00.

Take `CCN1CCN(CCCOc2cc(C)cc3c(=O)c4ccc(Oc5ccc(CCC(=O)NC6CCCC6)nc5)cc4oc23)CC1` [Example 65, N-Cyclopentyl-3-(5-((5-(3-(4-ethylpiperazin-1-yl)propoxy)-7-methyl-9-oxo-9H-xanthen-3-yl)oxy)pyridin-2-yl)propanamide]: the negative logarithm of the IC50 (pIC50) is > 7.00.

For the molecule `Cc1cc(OCCN(C(C)C)C(C)C)c2oc3cc(Oc4ccc(CCC(=O)NC5CCCC5)nc4)ccc3c(=O)c2c1` [Example 57, N-Cyclopentyl-3-[5-({5-[2-(diisopropylamino)ethoxy]-7-methyl-9-oxo-9H-xanthen-3-yl}oxy)-2-pyridinyl]propanamide], the pIC50 is > 7.00.

As for `Cc1cc(OCCN(C)C)c2oc3cc(Oc4ccc(CCNC(=O)C5CCCC5)nc4)ccc3c(=O)c2c1` [Example 26, N-(2-(5-((5-(2-(Dimethylamino)ethoxy)-7-methyl-9-oxo-9H-xanthen-3-yl)oxy)pyridin-2-yl)ethyl)cyclopentanecarboxamide], the pIC50 was > 7.00.

Turning to `Cc1cc(OC2CCN(C)C2)c2oc3cc(Oc4ccc(CCC(=O)NC5CCCC5)nc4)ccc3c(=O)c2c1` (stereo not drawn) [Example 70, N-Cyclopentyl-3-(5-((7-methyl-5-((1-methylpyrrolidin-3-yl)oxy)-9-oxo-9H-xanthen-3-yl)oxy)pyridin-2-yl)propanamide], the pIC50 was > 7.00.

`COc1ccc(CNc2ccc(Oc3ccc4c(=O)c5cc(C)cc(OCCN(C)C)c5oc4c3)cn2)cn1` [Example 16, 4-(2-(Dimethylamino)ethoxy)-6-((6-(((6-methoxypyridin-3-yl)methyl)amino)pyridin-3-yl)oxy)-2-methyl-9H-xanthen-9-one]: the negative-log IC50 (pIC50) is > 7.00.

`Cc1cc(OCCCN2CCOCC2)c2oc3cc(Oc4ccc(CCC(=O)NC5CCCC5)nc4)ccc3c(=O)c2c1` [Example 69, N-Cyclopentyl-3-[5-({7-methyl-5-[3-(4-morpholinyl)propoxy]-9-oxo-9H-xanthen-3-yl}oxy)-2-pyridinyl]propanamide]: the pIC50 is > 7.00.

In the case of `Cc1cc(OCCN(C)C)c2sc3cc(Oc4cccc(C(=O)Nc5ccccc5)c4)ccc3c(=O)c2c1` [Example 49, 3-((5-(2-(Dimethylamino)ethoxy)-7-methyl-9-oxo-9H-thioxanthen-3-yl)oxy)-N-phenylbenzamide], the negative logarithm of the IC50 (pIC50) is > 7.00.

For the molecule `Cc1cc(OCCN(C)C)c2sc3cc(Oc4ccccc4)ccc3c(=O)c2c1` [Example 48, 4-(2-(Dimethylamino)ethoxy)-2-methyl-6-phenoxy-9H-thioxanthen-9-one], the pIC50 is 6.00 to 7.00.

In the case of `Cc1cc(OCCN(C)C)c2oc3cc(Oc4ccc(CCC(=O)NC5CCCC5)nc4)ccc3c(=O)c2c1` [Example 22, N-Cyclopentyl-3-(5-((5-(2-(dimethylamino)ethoxy)-7-methyl-9-oxo-9H-xanthen-3-yl)-oxy)pyridin-2-yl)propanamide], the negative-log IC50 (pIC50) is > 7.00.

Turning to `COc1ccc(COc2ccc(Oc3ccc4c(=O)c5cc(C)cc(OCCN(C)C)c5oc4c3)cn2)cn1` [Example 11, 4-(2-(Dimethylamino)ethoxy)-6-((6-((6-methoxypyridin-3-yl)methoxy)pyridin-3-yl)oxy)-2-methyl-9H-xanthen-9-one], the negative-log IC50 (pIC50) was > 7.00.

`Cc1cc(OCC2CCN(C)CC2)c2oc3cc(Oc4ccccc4)ccc3c(=O)c2c1` [Example 35, 2-Methyl-4-((1-methylpiperidin-4-yl)methoxy)-6-phenoxy-9H-xanthen-9-one]: the pIC50 is 6.00 to 7.00.

With `Cc1cc(OCCN(C)C)c2sc3cc(Oc4ccc(CCC(=O)NC5CCCC5)nc4)ccc3c(=O)c2c1` [Example 51, N-Cyclopentyl-3-(5-((5-(2-(dimethylamino)ethoxy)-7-methyl-9-oxo-9H-thioxanthen-3-yl)oxy)pyridin-2-yl)propanamide], the pIC50 was > 7.00.

On to `CN(C)CCOc1cc(Cl)cc2c(=O)c3ccc(Oc4ccccc4)cc3oc12` [Example 39, 2-Chloro-4-[2-(dimethylamino)ethoxy]-6-phenoxy-9H-xanthen-9-one], for which the pIC50 was 5.00 to 6.00.

Turning to `Cc1cc(OCC2CCCCN2C)c2oc3cc(Oc4ccc(CCC(=O)NC5CCCC5)nc4)ccc3c(=O)c2c1` (stereo not drawn) [Example 74, N-Cyclopentyl-3-(5-((7-methyl-5-((1-methylpiperidin-2-yl)methoxy)-9-oxo-9H-xanthen-3-yl)oxy)pyridin-2-yl)propanamide], the pIC50 is > 7.00.

As to `COc1ccc(CCc2ccc(Oc3ccc4c(=O)c5cc(C)cc(OCCN(C)C)c5sc4c3)cn2)cc1` [Example 50, 4-(2-(Dimethylamino)ethoxy)-6-((6-(4-methoxyphenethyl)pyridin-3-yl)oxy)-2-methyl-9H-thioxanthen-9-one], the pIC50 was > 7.00.

With `Cc1cc(OCC2CCCN(C)C2)c2oc3cc(Oc4ccc(CCC(=O)NC5CCCC5)nc4)ccc3c(=O)c2c1` (stereo not drawn) [Example 76, N-Cyclopentyl-3-(5-((7-methyl-5-((1-methylpiperidin-3-yl)methoxy)-9-oxo-9H-xanthen-3-yl)oxy)pyridin-2-yl)propanamide], the pIC50 was > 7.00.

For the molecule `COc1ccc(COc2ccc(Oc3ccc4c(=O)c5cc(C)cc(OCCN(C)C)c5oc4c3)cn2)cc1` [Example 10, 4-(2-(Dimethylamino)ethoxy)-6-((6-((4-methoxybenzyl)oxy)pyridin-3-yl)oxy)-2-methyl-9H-xanthen-9-one], the negative logarithm of the IC50 (pIC50) was > 7.00.

Turning to `Cc1cc(OCCN2CCCCC2)c2oc3cc(Oc4ccc(CCC(=O)NC5CCCC5)nc4)ccc3c(=O)c2c1` [Example 38, N-Cyclopentyl-3-(5-((7-methyl-9-oxo-5-(2-(piperidin-1-yl)ethoxy)-9H-xanthen-3-yl)oxy)pyridin-2-yl)propanamide], the pIC50 was > 7.00.

With `Cc1cc(OCCN2CCOCC2)c2oc3cc(Oc4ccc(CCC(=O)NC5CCCC5)nc4)ccc3c(=O)c2c1` [Example 56, N-Cyclopentyl-3-[5-({7-methyl-5-[2-(4-morpholinyl)ethoxy]-9-oxo-9H-xanthen-3-yl}oxy)-2-pyridinyl]propanamide], the pIC50 was > 7.00.

Regarding `CN(C)CCOc1ccc2c(=O)c3ccc(Oc4ccc(CCC(=O)NC5CCCC5)nc4)cc3oc2c1` [Example 47, N-Cyclopentyl-3-(5-((6-(2-(dimethylamino)ethoxy)-9-oxo-9H-xanthen-3-yl)oxy)pyridine-2-yl)propanamide], the negative logarithm of the IC50 (pIC50) was > 7.00.

Regarding `CCN(CC)CCOc1cc(C)cc2c(=O)c3ccc(Oc4ccc(CCC(=O)NC5CCCC5)nc4)cc3oc12` [Example 55, N-Cyclopentyl-3-(5-((5-(2-(diethylamino)ethoxy)-7-methyl-9-oxo-9H-xanthen-3-yl)oxy)pyridin-2-yl)propanamide], the negative-log IC50 (pIC50) was > 7.00.

Turning to `Cc1cc(OCCN)c2oc3cc(Oc4ccc(CCC(=O)NC5CCCC5)nc4)ccc3c(=O)c2c1` [Example 28, 3-(5-((5-(2-Aminoethoxy)-7-methyl-9-oxo-9H-xanthen-3-yl)oxy)pyridin-2-yl)-N-cyclopentylpropanamide], the pIC50 is > 7.00.

Consider `Cc1cc(OC2CCCN(C)C2)c2oc3cc(Oc4ccc(CCC(=O)NC5CCCC5)nc4)ccc3c(=O)c2c1` (stereo not drawn) [Example 60, N-Cyclopentyl-3-(5-((7-methyl-5-((1-methylpiperidin-3-yl)oxy)-9-oxo-9H-xanthen-3-yl)oxy)pyridin-2-yl)propanamide], for which the pIC50 was > 7.00.

As to `Cc1cc(OCCC2CCCN2C)c2oc3cc(Oc4ccc(CCC(=O)NC5CCCC5)nc4)ccc3c(=O)c2c1` (stereo not drawn) [Example 75, N-Cyclopentyl-3-(5-((7-methyl-5-(2-(1-methylpyrrolidin-2-yl)ethoxy)-9-oxo-9H-xanthen-3-yl)oxy)pyridin-2-yl)propanamide], the pIC50 was > 7.00.

Regarding `Cc1cc(OCCN(C)C)c2oc3cc(Oc4ccc(OCc5ccc(C(F)(F)F)nc5)nc4)ccc3c(=O)c2c1` [Example 13, 4-(2-(Dimethylamino)ethoxy)-2-methyl-6-((6-((6-(trifluoromethyl)pyridin-3-yl)meth-oxy)pyridin-3-yl)oxy)-9H-xanthen-9-one], the negative-log IC50 (pIC50) was > 7.00.

For `Cc1cc(OCCCN2C[C@@H](C)N(C)[C@@H](C)C2)c2oc3cc(Oc4ccc(CCC(=O)NC5CCCC5)nc4)ccc3c(=O)c2c1` [Example 68, N-Cyclopentyl-3-(5-((7-methyl-9-oxo-5-(3-((3S,5R)-3,4,5-trimethylpiperazin-1-yl)propoxy)-9H-xanthen-3-yl)oxy)pyridin-2-yl)propanamide], the pIC50 is > 7.00.

`COc1ccc(CCc2ccc(Oc3ccc4c(=O)c5cc(Cl)cc(OCCN(C)C)c5oc4c3)cn2)cc1` [Example 41, 2-Chloro-4-[2-(dimethylamino)ethoxy]-6-({6-[2-(4-methoxyphenyl)ethyl]-3-pyridinyl}oxy)-9H-xanthen-9-one]: the pIC50 is 6.00 to 7.00.

For the molecule `COc1ccc(COc2ccc(Oc3ccc4c(=O)c5cc(C)cc(OCCN(C)C)c5oc4c3)cc2OC)cc1` [Example 7], the pIC50 was > 7.00.

On to `Cc1ccc2c(c1)c(=O)c1ccc(Sc3ccccc3)cc1n2CCCN(C)C` [Example 52, 10-(3-(Dimethylamino)propyl)-2-methyl-6-(phenylthio)acridin-9(10H)-one], for which the pIC50 was 5.00 to 6.00.

Turning to `COc1cc(OCCN(C)C)cc2c(=O)c3ccc(Oc4ccc(CCC(=O)NC5CCCC5)nc4)cc3oc12` [Example 46, N-Cyclopentyl-3-(5-((7-(2-(dimethylamino)ethoxy)-5-methoxy-9-oxo-9H-xanthen-3-yl)oxy)pyridin-2-yl)propanamide], the negative logarithm of the IC50 (pIC50) is > 7.00.

Regarding `CN(C)CCOc1cc(Cl)cc2c(=O)c3ccc(Oc4cccc(C(=O)Nc5ccccc5)c4)cc3oc12` [Example 40, 3-({7-Chloro-5-[2-(dimethylamino)ethoxy]-9-oxo-9H-xanthen-3-yl}oxy)-N-phenylbenzamide], the pIC50 is > 7.00.

Turning to `COc1ccc(COc2ncc(Oc3ccc4c(=O)c5cc(C)cc(OCCN(C)C)c5oc4c3)cc2OC)cc1` [Example 12, 4-(2-(Dimethylamino)ethoxy)-6-((5-methoxy-6-((4-methoxybenzyl)oxy)pyridin-3-yl)oxy)-2-methyl-9H-xanthen-9-one], the pIC50 is > 7.00.
